In article PMC12892976, “Alkylation-based optimization of antifungal FPPS inhibitors yields a potent, broad-spectrum lipophilic zoledronate derivative” (mBio, 2025):
Values after ≈ are worked out from the molar mass of the structure shown.

How the values were obtained:
Trichophyton tonsurans [1] = experiment: checkerboard drug interaction (FICI, MICc); assay type: cell-based;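 also: simplified diagonal checkerboard screen combining antifungals with FPPS inhibitors, with FICI calculated under the Loewe additivity model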
Protocol: (§1) Drug interactions between antifungals and FPPS inhibitors were investigated using a simplified checkerboard diagonal screening method ([45]). […] FICIs were determined according to the Loewe additivity model ([17]).

Candida dubliniensis = experiment: MIC broth microdilution (CLSI); assay type: cell-based; conditions: Candida dubliniensis M230642
Protocol: (§2) Antifungal susceptibility was determined by broth microdilution according to the CLSI guidelines described in M27-Ed4 ([16]).

Mucor circinelloides [2] = experiment: MIC broth microdilution (CLSI); assay type: cell-based; conditions: Mucor circinelloides 80-14-240-5007
Protocol: as §2

Nannizzia nana [3] = experiment: MIC broth microdilution (CLSI); assay type: cell-based; conditions: Nannizzia nana R-133
Protocol: as §2

Epidermophyton floccosum [4] = experiment: MIC broth microdilution (CLSI); assay type: cell-based; conditions: Epidermophyon floccosum R-113
Protocol: as §2

Nannizzia gypsea = experiment: checkerboard drug interaction (FICI, MICc);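 also: simplified diagonal checkerboard screen pairing antifungals with FPPS inhibitors, FICI derived using the Loewe additivity model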
Protocol: as §1

Trichophyton soudanense = experiment: MIC broth microdilution (CLSI); conditions: Trichophyton soudanense R-167
Protocol: as §2

Paraphyton cookei [5] = experiment: checkerboard drug interaction (FICI, MICc);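 also: simplified diagonal checkerboard screen pairing an antifungal with an FPPS inhibitor, FICI computed under the Loewe additivity model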
Protocol: as §1

Cryptococcus tetragattii = experiment: checkerboard drug interaction (FICI, MICc); assay type: cell-based;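 also: simplified diagonal checkerboard screen pairing antifungals with FPPS inhibitors, with FICI calculated under the Loewe additivity model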
Protocol: as §1

Paraphyton cookei [6] = experiment: MIC broth microdilution (CLSI); assay type: cell-based; conditions: Paraphyton cookei R-639
Protocol: as §2

Scedosporium apiospermum [7] = experiment: checkerboard drug interaction (FICI, MICc); assay type: cell-based;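 also: simplified diagonal checkerboard screen of antifungal plus FPPS inhibitor pairs, with FICI computed under the Loewe additivity model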
Protocol: as §1

Pichia kudriavzevii = experiment: checkerboard drug interaction (FICI, MICc); assay type: cell-based;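 also: antifungal plus FPPS inhibitor interactions tested in a simplified diagonal checkerboard screen, with FICI calculated under the Loewe additivity model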
Protocol: as §1

Candida parapsilosis = experiment: checkerboard drug interaction (FICI, MICc); assay type: cell-based;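 also: simplified diagonal checkerboard screen pairing antifungals with FPPS inhibitors, with FICI computed under the Loewe additivity model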
Protocol: as §1

Lomentospora prolificans = experiment: MIC broth microdilution (CLSI); assay type: cell-based; conditions: Lomentospora prolificans 80-16-101-2445
Protocol: as §2

Aspergillus terreus = experiment: checkerboard drug interaction (FICI, MICc); assay type: cell-based;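 also: simplified diagonal checkerboard screen pairing antifungals with FPPS inhibitors, FICI derived by the Loewe additivity model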
Protocol: as §1

Aspergillus udagawae [8] = experiment: MIC broth microdilution (CLSI); assay type: cell-based; conditions: Aspergillus udagawae 8G81
Protocol: as §2

Scedosporium apiospermum [9] = experiment: MIC broth microdilution (CLSI); assay type: cell-based; conditions: Scedosporium apiospermum 04-16-022-2268
Protocol: as §2

[10] = system: Cryptococcus bacillisporus; experiment: checkerboard drug interaction (FICI, MICc); assay type: cell-based;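 also: interaction of antifungals with FPPS inhibitors assessed by a simplified diagonal checkerboard screen, with FICI computed under the Loewe additivity model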
Protocol: as §1

Epidermophyton floccosum [11] = experiment: checkerboard drug interaction (FICI, MICc);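 also: simplified diagonal checkerboard screen pairing antifungals with FPPS inhibitors, FICI calculated under the Loewe additivity model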
Protocol: as §1

Aspergillus felis = experiment: MIC broth microdilution (CLSI); assay type: cell-based; conditions: Aspergillus felis IHE87256683D6
Protocol: as §2

Cryptococcus gattii = experiment: MIC broth microdilution (CLSI); assay type: cell-based; conditions: Cryptococcus gattii PNG27
Protocol: as §2

Fusarium solani [12] = experiment: checkerboard drug interaction (FICI, MICc); assay type: cell-based;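 also: simplified diagonal checkerboard screen pairing antifungals with FPPS inhibitors, FICI derived under the Loewe additivity model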
Protocol: as §1

Rhizopus oryzae = experiment: MIC broth microdilution (CLSI); assay type: cell-based; conditions: Rhizopus oryzae 04-14-364-1703
Protocol: as §2

Candida tropicalis = experiment: MIC broth microdilution (CLSI); assay type: cell-based; conditions: Candida tropicalis M230640
Protocol: as §2

Aspergillus niger = experiment: checkerboard drug interaction (FICI, MICc); assay type: cell-based;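 also: simplified diagonal checkerboard screen pairing antifungals with FPPS inhibitors, FICI calculated under the Loewe additivity model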
Protocol: as §1

Mucor circinelloides [13] = experiment: checkerboard drug interaction (FICI, MICc); assay type: cell-based;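 also: simplified diagonal checkerboard screen pairing antifungals with FPPS inhibitors, FICI calculated under the Loewe additivity model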
Protocol: as §1

[14] = system: Trichophyton interdigitale; experiment: checkerboard drug interaction (FICI, MICc);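 also: simplified diagonal checkerboard screen pairing antifungals with FPPS inhibitors, FICI values calculated under the Loewe additivity model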
Protocol: as §1

Microsporum canis = experiment: checkerboard drug interaction (FICI, MICc); assay type: cell-based;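 also: simplified diagonal checkerboard screen pairing antifungals with FPPS inhibitors, FICI calculated under the Loewe additivity model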
Protocol: as §1

Aspergillus udagawae [15] = experiment: checkerboard drug interaction (FICI, MICc); assay type: cell-based;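 also: simplified diagonal checkerboard screen pairing antifungals with FPPS inhibitors, FICI calculated using the Loewe additivity model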
Protocol: as §1

Fusarium solani [16] = experiment: MIC broth microdilution (CLSI); conditions: Fusarium solani 04-16-056-1862
Protocol: as §2

[17] = system: Aspergillus frankstonensis; experiment: MIC broth microdilution (CLSI); assay type: cell-based; conditions: Aspergillus frankstonensis DTO 341-F3
Protocol: as §2

Fusarium oxysporum = experiment: MIC broth microdilution (CLSI); assay type: cell-based; conditions: Fusarium oxysporum 07-200-3012
Protocol: as §2

[18] = system: Aspergillus frankstonensis; experiment: checkerboard drug interaction (FICI, MICc);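 also: simplified diagonal checkerboard screen pairing antifungals with FPPS inhibitors, FICI calculated using the Loewe additivity model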
Protocol: as §1

Trichophyton tonsurans [19] = experiment: MIC broth microdilution (CLSI); conditions: Trichophyton tonsurans R-168
Protocol: as §2

Nannizzia nana [20] = experiment: checkerboard drug interaction (FICI, MICc); assay type: cell-based
Protocol: as §1

SMILES: CCC(C)n1ncn(-c2ccc(N3CCN(c4ccc(OCC5COC(Cn6cncn6)(c6ccc(Cl)cc6Cl)O5)cc4)CC3)cc2)c1=O (centres unmarked) [ITR, itraconazole]
- antifungal MICc (Trichophyton tonsurans [1]; in combination with 10-ZOL): 0.25
- antifungal MICc (Trichophyton tonsurans [1]; in combination with ZOL): 0.25
- MIC / MEC (Candida dubliniensis): 0.13 mg/L (≈ 0.184 µM)
- MIC / MEC (Mucor circinelloides [2]): 0.5 mg/L (≈ 0.709 µM)
- MIC / MEC (Nannizzia nana [3]): 0.25 mg/L (≈ 0.354 µM)
- MIC / MEC (Epidermophyton floccosum [4]): 1 mg/L (≈ 1.42 µM)
- antifungal MICc (Nannizzia gypsea; in combination with 10-ZOL): 2
- antifungal MICc (Nannizzia gypsea; in combination with ZOL): 0.5
- MIC / MEC (Trichophyton soudanense): 0.5 mg/L (≈ 0.709 µM)
- antifungal MICc (Paraphyton cookei [5]; in combination with 10-ZOL): 0.063
- antifungal MICc (Paraphyton cookei [5]; in combination with ZOL): 1
- antifungal MICc (Cryptococcus tetragattii; in combination with 10-ZOL): 0.25
- antifungal MICc (Cryptococcus tetragattii; in combination with ZOL): 1
- MIC / MEC (Paraphyton cookei [6]): 2 mg/L (≈ 2.83 µM)
- antifungal MICc (Scedosporium apiospermum [7]; in combination with 10-ZOL): 4
- antifungal MICc (Scedosporium apiospermum [7]; in combination with ZOL): 4
- antifungal MICc (Pichia kudriavzevii; in combination with 10-ZOL): 1
- antifungal MICc (Pichia kudriavzevii; in combination with ZOL): 0.25
- antifungal MICc (Candida parapsilosis; in combination with 10-ZOL): 0.125
- antifungal MICc (Candida parapsilosis; in combination with ZOL): 0.062
- MIC / MEC (Lomentospora prolificans): 4 mg/L (≈ 5.67 µM)
- antifungal MICc (Aspergillus terreus; in combination with 10-ZOL): 0.25
- antifungal MICc (Aspergillus terreus; in combination with ZOL): 0.13
- MIC / MEC (Aspergillus udagawae [8]): 1 mg/L (≈ 1.42 µM)
- MIC / MEC (Scedosporium apiospermum [9]): 8 mg/L (≈ 11.3 µM)
- antifungal MICc ([10]; in combination with 10-ZOL): 0.033
- antifungal MICc ([10]; in combination with ZOL): 0.0625
- antifungal MICc (Epidermophyton floccosum [11]; in combination with 10-ZOL): 0.5
- antifungal MICc (Epidermophyton floccosum [11]; in combination with ZOL): 0.5
- MIC / MEC (Aspergillus felis): 2 mg/L (≈ 2.83 µM)
- MIC / MEC (Cryptococcus gattii): 0.25 mg/L (≈ 0.354 µM)
- antifungal MICc (Fusarium solani [12]; in combination with 10-ZOL): 1
- antifungal MICc (Fusarium solani [12]; in combination with ZOL): 0.5
- MIC / MEC (Rhizopus oryzae): 2 mg/L (≈ 2.83 µM)
- MIC / MEC (Candida tropicalis): 0.25 mg/L (≈ 0.354 µM)
- antifungal MICc (Aspergillus niger; in combination with 10-ZOL): 0.25
- antifungal MICc (Aspergillus niger; in combination with ZOL): 1
- antifungal MICc (Mucor circinelloides [13]; in combination with 10-ZOL): 0.25
- antifungal MICc (Mucor circinelloides [13]; in combination with ZOL): 0.06
- antifungal MICc ([14]; in combination with 10-ZOL): 0.5
- antifungal MICc ([14]; in combination with ZOL): 0.25
- antifungal MICc (Microsporum canis; in combination with 10-ZOL): 0.063
- antifungal MICc (Microsporum canis; in combination with ZOL): 0.25
- antifungal MICc (Aspergillus udagawae [15]; in combination with 10-ZOL): 0.25
- antifungal MICc (Aspergillus udagawae [15]; in combination with ZOL): 0.5
- MIC / MEC (Fusarium solani [16]): 2 mg/L (≈ 2.83 µM)
- MIC / MEC [17]: 2 mg/L (≈ 2.83 µM)
- MIC / MEC (Fusarium oxysporum): 4 mg/L (≈ 5.67 µM)
- antifungal MICc ([18]; in combination with 10-ZOL): 1
- antifungal MICc ([18]; in combination with ZOL): 2
- MIC / MEC (Trichophyton tonsurans [19]): 1 mg/L (≈ 1.42 µM)
- antifungal MICc (Nannizzia nana [20]; in combination with 10-ZOL): 0.25
- antifungal MICc (Nannizzia nana [20]; in combination with ZOL): 0.13
